Each structure is given as a SMILES string. Like-named read-outs stand apart in the source and are kept apart here.

One may read the % Inhibition as the relative decrease from the control value, in per cent. The EC50 is the concentration that produces a half-maximal response. Low readings indicate a more potent agent, high ones a less potent agent. Usually Emax stands for the greatest response seen or fitted, relative to the assay's reference. For orientation: IC50 means the concentration needed to halve the response being measured. High values mean weaker potency, low ones greater potency. As usually defined, the Ki is the equilibrium dissociation constant of an inhibitor or competing ligand from its target.

The target in assay [1] is T1, human M2 muscarinic receptor (Homo sapiens, UniProt P08172).
T1 construct: purchased PerkinElmer Life and Analytical Sciences, Boston, MA
T1 sequence (P08172 1-466): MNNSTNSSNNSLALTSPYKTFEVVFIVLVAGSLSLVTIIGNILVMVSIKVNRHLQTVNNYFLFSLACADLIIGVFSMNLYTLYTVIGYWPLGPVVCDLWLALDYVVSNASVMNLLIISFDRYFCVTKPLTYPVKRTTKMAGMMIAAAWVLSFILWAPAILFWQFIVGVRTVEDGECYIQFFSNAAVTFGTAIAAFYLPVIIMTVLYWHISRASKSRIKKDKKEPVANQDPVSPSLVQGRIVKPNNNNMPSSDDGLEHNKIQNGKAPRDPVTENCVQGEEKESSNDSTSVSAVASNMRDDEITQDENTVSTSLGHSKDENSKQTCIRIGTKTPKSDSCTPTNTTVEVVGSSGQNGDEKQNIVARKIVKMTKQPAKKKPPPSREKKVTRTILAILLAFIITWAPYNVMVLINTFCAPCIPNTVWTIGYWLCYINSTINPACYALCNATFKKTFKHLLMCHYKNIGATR
Set-up: method as in Watt et al. 2013 [10]. The settings on record: agonist mode, ref Watt et al. 2013 [10], cited from earlier work.

For assay [2], the target named is T2, human M4 muscarinic receptor (Homo sapiens, UniProt P08173).
T2 construct: purchased PerkinElmer Life and Analytical Sciences, Boston, MA
T2 sequence (P08173 1-479): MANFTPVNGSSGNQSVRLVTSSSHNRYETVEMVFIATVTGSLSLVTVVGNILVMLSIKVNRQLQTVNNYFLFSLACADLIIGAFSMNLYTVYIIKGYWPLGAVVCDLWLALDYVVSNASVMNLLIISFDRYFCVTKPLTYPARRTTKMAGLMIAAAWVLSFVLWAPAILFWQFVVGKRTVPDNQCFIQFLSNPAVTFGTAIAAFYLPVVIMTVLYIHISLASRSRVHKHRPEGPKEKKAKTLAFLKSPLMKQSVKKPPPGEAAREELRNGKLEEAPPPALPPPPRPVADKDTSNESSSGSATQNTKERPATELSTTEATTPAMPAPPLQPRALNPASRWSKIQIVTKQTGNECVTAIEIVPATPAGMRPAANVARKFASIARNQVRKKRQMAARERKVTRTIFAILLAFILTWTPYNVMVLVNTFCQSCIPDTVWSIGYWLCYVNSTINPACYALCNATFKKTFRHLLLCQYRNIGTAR
Set-up: method as in Watt et al. 2013 [10]. Conditions: ref Watt et al. 2013 [10], cited from earlier work.

Assay [3] addresses T2, human M4 muscarinic receptor. Nature of the assay: GTP-γ-[35S] binding, antibody capture SPA (agonist and antagonist mode). The class given is biochemical. As for the experimental part:
The antibody capture scintillation proximity technique previously described by DeLapp et al was used in a 96-well plate to determine GTP-γ-[35S] binding. One hundred μl (20–40 fmol/well) of membrane preparation from CHO cells that stably express the human M1-M5 muscarinic receptors (PerkinElmer Life and Analytical Sciences, Boston, MA) were incubated with varying concentration of test compound (final concentrations from 50pM to 1μM) for 30 min. One μM final concentration of GDP was added to M2 and M4 receptor membranes before incubation. […] (500 pM final concentration; Perkin Elmer Life and Analytical Sciences) was added to each well followed by 30 min of incubation. […] An anti-Gαq/11 antibody was used for the M1-, M3-, and M5 membranes, whereas an anti-Gαi-3 antibody was used for the M2- and M4 membranes (Eli Lilly and Company, Indianapolis, IN). […] By use of a Wallac MicroBeta TriLux scintillation counter (PerkinElmer), the plates were centrifuged for 10 min at 700 × g and counted for 1 min per well. The incubations took place at room temperature in GTP-binding assay buffer (20 mM Hepes, 100 mm NaCl, 5 mM MgC12, pH 7.4). The data were analyzed by use of nonlinear regression for a sigmoidal concentration response curve (GraphPad Prism v. 4.0). Data were normalized to a full agonist response (100 μM oxotremorine-M). […] The antagonist percent inhibition data were normalized to data generated with an EC90 concentration of acetylcholine. The mean relative EC50, IC50, and %Emax, and pKi values were calculated as a mean of at least three independent experiments±SEM. In order to obtain relevant comparisons between subtypes, the experimental system is routinely calibrated with reference agonists (oxotremorine-M, pilocarpine, MCN-A343) to measure full and partial agonism as well as to ensure that the system is not under- or over-reporting functional efficacies. The radioligand binding assays have earlier been described.
In general terms: GTPγS resists hydrolysis and so accumulates on activated G proteins.

In another assay the target is T3, M5AChR (Homo sapiens, UniProt P08912).
T3 sequence (P08912 1-532): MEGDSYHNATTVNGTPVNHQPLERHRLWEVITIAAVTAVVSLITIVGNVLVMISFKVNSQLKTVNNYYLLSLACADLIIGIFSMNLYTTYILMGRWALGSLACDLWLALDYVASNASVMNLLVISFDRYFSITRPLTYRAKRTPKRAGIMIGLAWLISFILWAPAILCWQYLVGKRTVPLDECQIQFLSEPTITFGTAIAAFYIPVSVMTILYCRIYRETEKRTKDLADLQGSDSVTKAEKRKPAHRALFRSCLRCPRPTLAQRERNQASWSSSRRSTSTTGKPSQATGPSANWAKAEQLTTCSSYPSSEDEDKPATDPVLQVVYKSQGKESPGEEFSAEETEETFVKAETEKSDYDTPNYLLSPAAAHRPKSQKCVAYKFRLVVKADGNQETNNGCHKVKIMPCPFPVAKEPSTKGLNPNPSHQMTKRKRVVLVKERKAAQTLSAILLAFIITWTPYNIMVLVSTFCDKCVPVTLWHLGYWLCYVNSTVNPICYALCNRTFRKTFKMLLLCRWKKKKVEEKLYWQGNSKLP
The assay can be described thus: Competitive radioligand binding.

Consider `CCCCSc1nsnc1[C@H]1CN2CCC[C@H]1C2` [BuTAC, (5R,6R)-6-(3-butylthio-1,2,5-thiadiazol-4-yl)-1-azabicyclo[3.2.1]octane], for which the “Rel pEC50” value in assay [1] (negative log-transformed) is listed as 9.56 ±10.26 M; in assay [2] (agonist mode, negative log-transformed), 10.27 ± 10.31 M. The “% Emax” value is on record as 136.53 ± 17.20% in assay [1] and 35.53 ± 11.51% in assay [2] (agonist mode). Besides, the “Rel pIC50” value in assay [2] (antagonist mode, negative log-transformed) was 9.19 ± 9.13 M. Further, the “% Inhibition” value in assay [2] (antagonist mode) is 57.55 ± 3.22%.
In assay [3], `CCCSc1nsnc1[C@H]1CN2CCC[C@H]1C2` [PTAC, (5R,6R) 6-(3-propylthio-1,2,5-thiadiazol-4-yl)-1-azabicyclo-[3.2.1]-octane] showed an EC50 of 1.48 nM, an Emax of 19.4 ± 0.52% and an IC50 of 24.5 nM. The “% Inhibition” value in assay [3] (antagonist mode, maximal inhibition of EC90 agonist response) amounted to 92.7 ± 7.49%. The compound also gave a Ki on M5AChR of 0.372 nM.

These data come from PMC4399838, “Antipsychotic-Like Effect of the Muscarinic Acetylcholine Receptor Agonist BuTAC in Non-Human Primates” (PLoS ONE, 2015).
